For data set [1], the target named is 5-Hydroxy tryptamine (Serotonin) Receptor 2B (HTR2B) (Homo sapiens, UniProt P41595). Briefly: SAFETYscan GPCR Calcium Flux. Type of data set: cell-based. A general note: Calcium flux is commonly read through the fluorescence of an indicator in the cells.
Data set [2] deals with Histamine Receptor H2 (HRH2) (Homo sapiens, UniProt P25021). Briefly: SAFETYscan GPCR cAMP. Type of data set: cell-based. To be noted: read-out: RC50 (the source's name).
Data set [3] can be described thus: Acute (single-dose) oral toxicity, pathology of major organs. Type of data set: in vivo. The note with it: 2000 mg/kg orally. On the procedure: Prioritizing compounds with a lower chance of causing toxicity, early in the drug discovery process, would help in the drug development process.[30] With this consideration we conducted acute (single-dose) toxicity study[31] to determine the short-term adverse pathological effects on major mice organs of HU-MCA-13 when administered in mice in a single dose, for a period of 24 h. One group of 5 mice received HU-MCA-13 orally at a dose of 2000 mg/kg, dissolved in a nano-emulsifying drug delivery system[32] in a bolus of 0.4 mL/mouse. After 24 h exposure, the animals were sacrificed, and organs were harvest for pathology analyses. […] This finding was not related to the tested compound and was considered as an accidental finding. This information on the lack of acute toxicity of HU-MCA-13 may predict the safety of this compound in future therapeutic evaluation.
C57Bl/6 mice, 8 weeks old, obtained from Envigo animal breeding center were used in the study. All experiments were approved by the Institutional Animal Care and Use Committee and performed according to OECD guidelines for testing of chemicals.[53] Organs were harvested from mice that were administered with MCA-13 for the detection of possible toxicological lesions in the framework of a safety assessment. […]

In a further data set the test system is neurons. Briefly: Cytotoxicity to neurons. It counts as cell-based. To be noted: 10 μM. The source says:
“Off-target” activity refers to all other targets for which a molecule has affinity with the outcome of activation, blockade, or modulation, resulting in a functional effect. In many cases, the off-target activity of the molecule can be sub-clinical and not pose a concern. On the other hand, the off-target activity may result in side effects of the active agent that range from a minor nuisance to a severe adverse event, resulting with drug withdrawal.[33] Therefore, in vitro pharmacological profiling is increasingly being used earlier in the drug discovery process to identify undesirable off-target activity profiles that could hinder or halt the development of a candidate drug.[34] With this background, assessing the specificity of HU-MCA-13 early in its development using highly relevant and predictive functional assays, which allow more informed decisions about its safety, ultimately lead to the development of an effective neurotropic drug. […] Cell death was evaluated by morphological appearance of the cells and release of LDH into the medium, in the absence and presence of different concentrations of synthetic compounds as previously described.[52]

Data set [4] is described as follows: Blood hematology and biochemistry after intravenous injection. Type of data set: in vivo. The note with it: 250 mg/kg IV; 24 h from injection.
In data set [5] the test system is PGE2 production in PC12 cells. Briefly: PGE2 production measured by ELISA. The note with it: different concentrations of HU-MCA-13, dose-dependent; 24 h. (In an ELISA, binding on a coated surface is turned into a signal by an enzyme label.)
For data set [6], the target named is T1, Dopamine Receptor D2 (DRD2S) (Homo sapiens, UniProt P14416).
T1 construct: host or cells: cAMP Hunter cell lines
Briefly: SAFETYscan GPCR cAMP. Type of data set: cell-based.

The target in data set [7] is T2, Cannabinoid Receptor 2 (CNR2) (Homo sapiens, UniProt P34972).
T2 construct: host or cells: cAMP Hunter cell lines
Briefly: SAFETYscan GPCR cAMP. Type of data set: cell-based.

Data set [8] addresses Adrenergic Receptor α1A (ADRA1A) (Homo sapiens, UniProt P35348). Briefly: SAFETYscan GPCR Calcium Flux. Type of data set: cell-based.

Consider one molecule from PMC7497641, “Neurotropic activity and safety of methylene-cycloalkylacetate (MCA) derivative 3-(3-allyl-2-methylenecyclohexyl) propanoic acid” (ACS Chemical Neuroscience, 2020).

Chain of 5-Hydroxy tryptamine (Serotonin) Receptor 2B (HTR2B) (P41595 whole entry): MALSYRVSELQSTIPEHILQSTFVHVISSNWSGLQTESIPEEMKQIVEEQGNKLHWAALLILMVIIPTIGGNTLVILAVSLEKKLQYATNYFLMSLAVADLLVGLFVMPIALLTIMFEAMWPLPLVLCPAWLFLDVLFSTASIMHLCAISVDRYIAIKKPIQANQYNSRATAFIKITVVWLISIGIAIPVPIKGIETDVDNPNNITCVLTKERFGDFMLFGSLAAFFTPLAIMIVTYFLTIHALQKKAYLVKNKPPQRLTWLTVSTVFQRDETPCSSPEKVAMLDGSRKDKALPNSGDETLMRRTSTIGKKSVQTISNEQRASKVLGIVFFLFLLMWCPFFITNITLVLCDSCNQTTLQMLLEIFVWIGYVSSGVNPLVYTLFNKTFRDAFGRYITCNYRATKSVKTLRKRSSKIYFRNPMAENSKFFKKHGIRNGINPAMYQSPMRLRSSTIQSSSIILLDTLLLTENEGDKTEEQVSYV
T2 sequence (P34972 whole entry): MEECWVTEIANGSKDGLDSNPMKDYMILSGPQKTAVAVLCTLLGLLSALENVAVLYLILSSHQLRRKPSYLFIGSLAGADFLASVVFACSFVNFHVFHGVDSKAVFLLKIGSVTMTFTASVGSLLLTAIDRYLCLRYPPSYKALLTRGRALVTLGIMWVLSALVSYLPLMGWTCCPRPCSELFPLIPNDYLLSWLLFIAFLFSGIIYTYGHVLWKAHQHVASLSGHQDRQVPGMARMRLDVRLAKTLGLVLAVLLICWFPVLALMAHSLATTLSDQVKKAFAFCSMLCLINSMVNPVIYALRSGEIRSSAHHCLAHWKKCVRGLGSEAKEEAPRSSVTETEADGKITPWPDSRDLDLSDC
T1 sequence (P14416 1-414 isoform P14416-2): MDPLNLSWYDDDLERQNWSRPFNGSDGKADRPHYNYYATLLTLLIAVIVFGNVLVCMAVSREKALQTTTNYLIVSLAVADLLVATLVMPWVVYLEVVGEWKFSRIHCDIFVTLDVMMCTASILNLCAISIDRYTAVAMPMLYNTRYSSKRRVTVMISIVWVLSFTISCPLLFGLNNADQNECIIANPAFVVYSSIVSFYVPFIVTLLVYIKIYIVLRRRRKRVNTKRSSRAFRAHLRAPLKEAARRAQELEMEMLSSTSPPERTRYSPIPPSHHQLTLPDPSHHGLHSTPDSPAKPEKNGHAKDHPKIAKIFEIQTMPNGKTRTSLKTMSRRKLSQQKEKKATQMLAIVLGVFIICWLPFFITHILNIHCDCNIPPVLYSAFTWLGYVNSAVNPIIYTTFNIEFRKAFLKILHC
Chain of Histamine Receptor H2 (HRH2) (P25021 whole entry): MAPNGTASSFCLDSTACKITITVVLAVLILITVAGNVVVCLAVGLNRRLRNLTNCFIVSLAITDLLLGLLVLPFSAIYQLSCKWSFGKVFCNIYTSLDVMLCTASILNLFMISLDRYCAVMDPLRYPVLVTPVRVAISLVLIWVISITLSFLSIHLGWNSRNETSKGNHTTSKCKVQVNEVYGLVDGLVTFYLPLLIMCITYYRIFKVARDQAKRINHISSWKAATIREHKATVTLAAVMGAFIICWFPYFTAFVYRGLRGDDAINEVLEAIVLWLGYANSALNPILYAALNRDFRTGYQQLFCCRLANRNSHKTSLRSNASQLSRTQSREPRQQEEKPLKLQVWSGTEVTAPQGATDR
Chain of Adrenergic Receptor α1A (ADRA1A) (P35348 whole entry): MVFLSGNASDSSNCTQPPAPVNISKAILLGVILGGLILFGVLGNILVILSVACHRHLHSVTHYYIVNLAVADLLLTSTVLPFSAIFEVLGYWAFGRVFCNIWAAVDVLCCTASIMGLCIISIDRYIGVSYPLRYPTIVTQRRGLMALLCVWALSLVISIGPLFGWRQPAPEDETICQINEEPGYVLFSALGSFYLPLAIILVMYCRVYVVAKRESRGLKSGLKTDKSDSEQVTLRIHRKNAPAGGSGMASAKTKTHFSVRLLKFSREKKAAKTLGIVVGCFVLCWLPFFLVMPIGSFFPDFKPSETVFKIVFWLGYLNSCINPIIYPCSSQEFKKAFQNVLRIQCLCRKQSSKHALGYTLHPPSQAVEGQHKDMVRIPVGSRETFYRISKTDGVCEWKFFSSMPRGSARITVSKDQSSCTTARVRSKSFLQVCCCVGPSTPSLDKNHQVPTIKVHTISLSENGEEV

For `C=CCC1CCCC(CCC(=O)O)C1=C` (stereo not shown) [HU-MCA-13, 3-(3-allyl-2-methylenecyclohexyl)propanoic acid], in data set [1], the EC50 was above 10 µM and the IC50 was above 10 µM. For the same molecule, the EC50 in data set [2] (Agonist) was above 10 µM. Besides, in data set [2] (Antagonist), the IC50 is above 10 µM. Moreover, in data set [3] (single dose in nano-emulsifying drug delivery system, 24 h), the “cytotoxic lesions in all organs (histopathology)” value was “no cytotoxic lesions were found”. The “finding in last part of colon, rectum and adjacent anal unhaired skin” value in [3] (in three animals, considered accidental, not related to the tested compound) is “severe purulent, necrotizing inflammation”. For the same molecule, the toxicity to neurons entry in the data set on neurons is “not toxic”. For the same molecule, in [4], the “bilirubin concentration versus DMSO” value is “small significant increase”, the “blood count versus DMSO” value is “No difference”, the “coagulation parameters versus DMSO” value is on record as “No difference” and the “electrolytes versus DMSO” value is recorded as “No difference”. Besides, the “kidney and liver parameters versus DMSO” value in data set [4] is on record as “lack of differences”. In data set [5], the “increase of PGE2 production over control, untreated cultures” value is given as 3–6 fold. Moreover, in data set [6], the EC50 is above 10 µM and the IC50 was above 10 µM. In data set [7], this molecule came in with an EC50 above 10 µM and an IC50 above 10 µM. Moreover, in data set [8], the EC50 was above 10 µM and the IC50 was above 10 µM.
